Test results as given in patent US20220233566A1, “NOVEL CARBONATE COMPOUND HAVING PYRROLOPYRIMIDINE SKELETON OR PHARMACEUTICALLY ACCEPTABLE SALT THEREOF” (TAIHO PHARMACEUTICAL CO., LTD., priority 2019, published 2022).

Key:
Assay in all cases: Growth suppression activity in human tumor cell line
Type in all cases: cell-based
SDM103T2 = details: 72 h; Human lung cancer, SDM103T2, 3 days
Method: (§1) Human tumor cell lines different in type were suspended in mediums, seeded in individual wells of a multi-well plate and cultured. On the day after initiation of culture, serially diluted solutions of a compound were added. Culture was carried out for further 3 days. Cells were counted by a CellTiter-Glo (manufactured by Promega KK) in accordance with the protocol recommended by Promega KK. Cell viability was calculated in accordance with the equation shown below and the concentration (IC50 (μM)) of the compound at which 50% of cell growth is inhibited was obtained.
(§2) T: Intensity of light emitted from a well containing a compound
(§3) C: Intensity of light emitted from a well containing no compound

BC3 = details: BC-3, 72 h; Human hematopoietic organ tumor, BC3, 3 days
Method: as §1, §2, §3

A172 = details: A 172, 72 h; Human brain tumor, A172, 3 days
Method: as §1, §2, §3

A2780 = details: 72 h; Human ovary cancer, A2780, 3 days
Method: as §1, §2, §3

CFPAC1 = details: CFPAC-1, 72 h; Human pancreatic cancer, CFPAC1, 3 days
Method: as §1, §2, §3

H2081 = details: NCI-H2081, 72 h; Human lung cancer, H2081, 3 days
Method: as §1, §2, §3

MKN45 = details: MKN-45, 72 h; Human stomach cancer, MKN45, 3 days
Method: as §1, §2, §3

H69 = details: NCI-H69, 72 h; Human lung cancer, H69, 3 days
Method: as §1, §2, §3

LN229 = details: LN-229, 72 h; Human brain tumor, LN229, 3 days
Method: as §1, §2, §3

DLD1 = details: DLD-1, 72 h; Human colorectal cancer, DLD1, 3 days
Method: as §1, §2, §3

CCRFCEM = details: CCRF-CEM, 72 h, Human hematopoietic organ tumor, 3 days
Method: as §1, §2, §3

H2170 = details: NCI-H2170, 72 h; Human lung cancer, H2170, 3 days
Method: as §1, §2, §3

HT1197 = details: 72 h; human bladder cancer, HT1197, 3 days
Method: as §1, §2, §3

H1703 = details: NCI-H1703, 72 h; Human lung cancer, H1703, 3 days
Method: as §1, §2, §3

BHL-89 = details: 72 h; Human hematopoietic organ tumor, BHL-89, 3 days
Method: as §1, §2, §3

A673 = details: 72 h; Human bone tumor, A673, 3 days
Method: as §1, §2, §3

BXPC3 = details: BXPC-3, 72 h; Human pancreatic cancer, BXPC3, 3 days
Method: as §1, §2, §3

Mero48a = details: 72 h, Human lung cancer, 3 days
Method: as §1, §2, §3

CA9-22 = details: 72 h; Human head and neck cancer, CA9-22, 3 days
Method: as §1, §2, §3

MIAPACA2 = details: MIA PaCa-2, 72 h; Human pancreatic cancer, MIAPACA2, 3 days
Method: as §1, §2, §3

NUGC3 = details: NUGC-3, 72 h; Human stomach cancer, NUGC3, 3 days
Method: as §1, §2, §3

MV-4-11 = details: MV4-11, 72 h; Human hematopoietic organ tumor, MV-4-11, 3 days
Method: as §1, §2, §3

N87 = details: 72 h; Human stomach cancer, N87, 3 days
Method: as §1, §2, §3

MCF7 = details: 72 h; Human breast cancer, MCF7, 3 days
Method: as §1, §2, §3

EBC1 = details: EBC-1, 72 h; Human lung cancer, EBC1, 3 days
Method: as §1, §2, §3

MES01 = details: 72 h; Human lung cancer, MES01, 3 days
Method: as §1, §2, §3

HS746T = details: 72 h, Human stomach cancer, 3 days
Method: as §1, §2, §3

H23 = details: NCI-H23, 72 h; Human lung cancer, H23, 3 days
Method: as §1, §2, §3

HCT116 = details: HCT-116, 72 h; Human colorectal cancer, HCT116, 3 days
Method: as §1, §2, §3

DMS273 = details: DMS-273, 72 h; Human lung cancer, DMS273, 3 days
Method: as §1, §2, §3

SPC111 = details: 72 h; Human lung cancer, SPC111, 3 days
Method: as §1, §2, §3

DOK = details: 72 h, Human head and neck cancer, 3 days
Method: as §1, §2, §3

H460 = details: NCI-H460, 72 h; Human lung cancer, H460, 3 days
Method: as §1, §2, §3

Mero82 = details: 72 h; Human lung cancer, Mero82, 3 days
Method: as §1, §2, §3

Mero83 = details: 72 h; Human lung cancer, Mero83, 3 days
Method: as §1, §2, §3

IC50 (SDM103T2): 580 nM | IC50 (BC3): 20 nM | IC50 (A172): 140 nM | IC50 (A2780): 50 nM | IC50 (CFPAC1): 110 nM | IC50 (H2081): 90 nM | IC50 (MKN45): 210 nM | IC50 (H69): 110 nM | IC50 (LN229): 630 nM | IC50 (DLD1): 50 nM | IC50 (CCRFCEM): 50 nM | IC50 (H2170): 260 nM | IC50 (HT1197): 130 nM | IC50 (H1703): 20 nM | IC50 (BHL-89): 230 nM | IC50 (A673): 130 nM | IC50 (BXPC3): 270 nM | IC50 (Mero48a): 160 nM | IC50 (CA9-22): 80 nM | IC50 (MIAPACA2): 70 nM | IC50 (NUGC3): 70 nM | IC50 (MV-4-11): 30 nM | IC50 (N87): 30 nM | IC50 (MCF7): 80 nM | IC50 (EBC1): 60 nM | IC50 (MES01): 410 nM | IC50 (HS746T): 250 nM | IC50 (H23): 50 nM | IC50 (HCT116): 120 nM | IC50 (DMS273): 400 nM | IC50 (SPC111): 360 nM | IC50 (DOK): 110 nM | IC50 (H460): 80 nM | IC50 (Mero82): 460 nM | IC50 (Mero83): 350 nM
SMILES: Nc1ncnc2c1c(Br)cn2[C@@H]1O[C@H](CO)[C@@H](O)[C@@H]1F [Comparative Example 1, (2R,3R,4S,5R)-5-(4-amino-5-bromo-7H-pyrrolo[2,3-d]pyrimidin-7-yl)-4-fluoro-2-(hydroxymethyl) tetrahydrofuran-3-ol]
